Activity calls are given as the source filed them. No cut-off for these calls is given here.
Experiments:
[1] = target: T1, Tyrosine-protein kinase JAK3 (Homo sapiens) (UniProt P52333); test: Inhibition of human JAK3 at 0.5 uM relative to control
T1 sequence (whole entry): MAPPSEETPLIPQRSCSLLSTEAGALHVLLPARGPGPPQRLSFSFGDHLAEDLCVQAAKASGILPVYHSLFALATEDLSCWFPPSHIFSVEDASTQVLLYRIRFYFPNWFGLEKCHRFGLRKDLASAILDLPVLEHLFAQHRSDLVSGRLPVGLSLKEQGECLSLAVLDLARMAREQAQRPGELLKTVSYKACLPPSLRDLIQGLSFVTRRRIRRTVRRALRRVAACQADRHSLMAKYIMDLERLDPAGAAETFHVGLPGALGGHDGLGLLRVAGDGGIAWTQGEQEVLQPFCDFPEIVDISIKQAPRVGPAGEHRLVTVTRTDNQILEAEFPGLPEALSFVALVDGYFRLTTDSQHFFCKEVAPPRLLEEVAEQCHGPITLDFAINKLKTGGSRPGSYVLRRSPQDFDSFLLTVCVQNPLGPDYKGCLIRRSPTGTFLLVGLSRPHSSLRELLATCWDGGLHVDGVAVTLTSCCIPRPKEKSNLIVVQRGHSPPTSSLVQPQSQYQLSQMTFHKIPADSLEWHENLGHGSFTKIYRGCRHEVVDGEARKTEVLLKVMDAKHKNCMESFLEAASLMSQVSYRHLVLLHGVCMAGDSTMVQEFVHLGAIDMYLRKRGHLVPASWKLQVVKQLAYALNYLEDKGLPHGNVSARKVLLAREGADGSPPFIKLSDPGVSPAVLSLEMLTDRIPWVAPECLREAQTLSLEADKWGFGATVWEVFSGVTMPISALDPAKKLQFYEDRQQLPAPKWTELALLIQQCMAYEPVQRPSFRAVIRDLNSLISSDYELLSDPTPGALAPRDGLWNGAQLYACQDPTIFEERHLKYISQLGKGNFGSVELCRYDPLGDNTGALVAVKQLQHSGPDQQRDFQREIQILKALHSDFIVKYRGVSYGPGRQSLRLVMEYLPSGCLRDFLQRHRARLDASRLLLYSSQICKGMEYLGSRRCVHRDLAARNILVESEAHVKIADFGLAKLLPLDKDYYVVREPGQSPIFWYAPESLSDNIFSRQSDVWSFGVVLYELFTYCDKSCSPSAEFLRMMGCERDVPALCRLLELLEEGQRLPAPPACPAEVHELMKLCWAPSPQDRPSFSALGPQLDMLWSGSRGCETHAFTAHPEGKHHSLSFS

[2] = target: Tyrosine-protein kinase Blk (Homo sapiens) (UniProt P51451); test: Inhibition of BLK (unknown origin) at 0.5 uM assessed as competition rate relative to control
U-937 [3] = test: Induction of cell cycle arrest in human U-937 cells assessed as accumulation at G2/M phase at 100 nM measured after 24 hrs by propidium iodide staining based flow cytometric analysis (reference value: 21.41%); type: functional
[4] = target: Receptor tyrosine-protein kinase erbB-4 (Homo sapiens) (UniProt Q15303); test: Inhibition of HER4 (unknown origin) at 0.5 uM relative to control
U-937 [5] = test: Induction of cell cycle arrest in human U-937 cells assessed as downregulation of Cyclic D3 at 0 to 300 nM measured after 24 hrs by western blot analysis; type: functional, cell-based; settings: dose 0-300 nM
U-937 [6] = test: Induction of cell cycle arrest in human U-937 cells assessed as accumulation at G2/M phase at 11 nM measured after 24 hrs by propidium iodide staining based flow cytometric analysis (reference value: 21.41%); type: functional
[7] = target: T2, Tyrosine-protein kinase JAK1 (Homo sapiens, UniProt P23458); test: Inhibition of human JAK1 at 0.5 uM relative to control
[8] = target: T1, Tyrosine-protein kinase JAK3 (Homo sapiens); test: Inhibition of human JAK3 at 0.5 uM assessed as competition rate relative to control
U-937 [9] = test: Induction of cell cycle arrest in human U-937 cells assessed as accumulation at G0/G1 phase at 100 nM measured after 24 hrs by propidium iodide staining based flow cytometric analysis (reference value: 62.95%); type: functional
U-937 [10] = test: Induction of cell cycle arrest in human U-937 cells assessed as accumulation at G0/G1 phase at 11 nM measured after 24 hrs by propidium iodide staining based flow cytometric analysis (reference value: 62.95%); type: functional
U-937 [11] = test: Induction of cell cycle arrest in human U-937 cells assessed as downregulation of Cyclic E1 at 0 to 300 nM measured after 24 hrs by western blot analysis; type: functional, cell-based; settings: dose 0-300 nM
[12] = target: Non-receptor tyrosine-protein kinase TYK2 (Homo sapiens, UniProt P29597); test: Inhibition of human TYK2
U-937 [13] = test: Induction of cell cycle arrest in human U-937 cells assessed as accumulation at S phase at 11 nM measured after 24 hrs by propidium iodide staining based flow cytometric analysis (reference value: 15.35%); type: functional
[14] = Half life in 12 hr fasted SPF Sprague-Dawley rat at 15 mg/kg, po upon 2 hrs fasting post-administration measured upto 24 hrs; type: ADME, organism-based; settings: in vivo
[15] = target: Tyrosine-protein kinase TXK (Homo sapiens) (UniProt P42681); test: Inhibition of TXK (unknown origin) at 0.5 uM relative to control
U-937 [16] = test: Induction of cell cycle arrest in human U-937 cells assessed as accumulation at G2/M phase at 3.7 nM measured after 24 hrs by propidium iodide staining based flow cytometric analysis (reference value: 21.41%); type: functional
[17] = target: Cyclin-dependent kinase 16 (Homo sapiens) (UniProt Q00536); test: Inhibition of human CDK16 at 0.5 uM assessed as competition rate relative to control
[18] = target: T2, Tyrosine-protein kinase JAK1; test: Inhibition of human JAK1
BaF3 = test: cells; settings: Mus musculus, BaF3, 72 h
[19] = target: Receptor tyrosine-protein kinase erbB-2 (Homo sapiens) (UniProt P04626); test: Inhibition of HER2 (unknown origin) at 0.5 uM assessed as competition rate relative to control
[20] = target: Cytoplasmic tyrosine-protein kinase BMX (Homo sapiens) (UniProt P51813); test: Inhibition of BMX (unknown origin) at 0.5 uM relative to control
U-937 [21] = test: Induction of cell cycle arrest in human U-937 cells assessed as downregulation of CDK4 at 0 to 300 nM measured after 24 hrs by western blot analysis; type: functional, cell-based; settings: dose 0-300 nM
[22] = Clearance in 12 hr fasted SPF Sprague-Dawley rat at 5 mg/kg, iv upon 2 hrs fasting post-administration measured upto 24 hrs; type: ADME, organism-based; settings: in vivo
[23] = target: Cyclin-Y/Cyclin-dependent kinase 16 (Homo sapiens) (UniProt Q00536+Q8ND76); test: Inhibition of human CDK16/cyclin-Y at 0.5 uM relative to control; type: protein-complex assay
[24] = target: Epidermal growth factor receptor (Homo sapiens) (UniProt P00533); test: Inhibition of EGFR (unknown origin) at 0.5 uM relative to control
U-937 [25] = test: cells; settings: Homo sapiens, U-937, 72 h
[26] = target: T3, Tyrosine-protein kinase JAK3 (Homo sapiens, UniProt P52333)
T3 sequence (P52333 whole entry): T1 sequence (whole entry)
Description: Inhibition of GST tagged recombinant human JAK3 expressed in baculovirus infection system by FRET assay

T2 sequence (P23458 whole entry): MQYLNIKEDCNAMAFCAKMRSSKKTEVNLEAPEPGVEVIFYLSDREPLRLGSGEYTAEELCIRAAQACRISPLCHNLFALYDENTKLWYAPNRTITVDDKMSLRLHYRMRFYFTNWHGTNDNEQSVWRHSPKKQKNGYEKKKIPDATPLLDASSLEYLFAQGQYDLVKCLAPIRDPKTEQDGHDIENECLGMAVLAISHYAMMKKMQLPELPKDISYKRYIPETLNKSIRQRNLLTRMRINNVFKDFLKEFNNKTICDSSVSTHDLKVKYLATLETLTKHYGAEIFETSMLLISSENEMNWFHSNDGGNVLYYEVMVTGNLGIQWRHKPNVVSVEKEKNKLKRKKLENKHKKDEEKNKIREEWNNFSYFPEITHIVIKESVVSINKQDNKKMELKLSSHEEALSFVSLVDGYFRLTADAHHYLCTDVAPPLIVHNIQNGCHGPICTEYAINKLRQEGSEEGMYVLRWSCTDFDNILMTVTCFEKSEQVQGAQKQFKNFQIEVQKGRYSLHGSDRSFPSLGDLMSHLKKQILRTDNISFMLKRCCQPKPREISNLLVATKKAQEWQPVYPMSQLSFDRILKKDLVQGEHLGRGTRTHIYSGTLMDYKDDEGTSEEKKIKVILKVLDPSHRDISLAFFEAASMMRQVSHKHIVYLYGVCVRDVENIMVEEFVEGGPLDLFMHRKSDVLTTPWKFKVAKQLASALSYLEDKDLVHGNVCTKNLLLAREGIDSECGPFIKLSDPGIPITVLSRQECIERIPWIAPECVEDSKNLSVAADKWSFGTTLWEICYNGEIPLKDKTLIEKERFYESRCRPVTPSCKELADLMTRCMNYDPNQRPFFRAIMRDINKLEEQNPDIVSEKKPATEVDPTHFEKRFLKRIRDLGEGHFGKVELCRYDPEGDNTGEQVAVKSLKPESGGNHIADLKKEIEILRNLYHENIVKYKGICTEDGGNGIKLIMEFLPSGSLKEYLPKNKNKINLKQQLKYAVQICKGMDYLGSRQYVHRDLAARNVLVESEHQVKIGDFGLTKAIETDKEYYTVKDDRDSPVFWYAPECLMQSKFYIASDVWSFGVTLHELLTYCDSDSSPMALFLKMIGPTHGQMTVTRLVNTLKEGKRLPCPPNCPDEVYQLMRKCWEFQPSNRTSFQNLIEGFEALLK
Chain of Receptor tyrosine-protein kinase erbB-2 (Homo sapiens) (P04626 whole entry): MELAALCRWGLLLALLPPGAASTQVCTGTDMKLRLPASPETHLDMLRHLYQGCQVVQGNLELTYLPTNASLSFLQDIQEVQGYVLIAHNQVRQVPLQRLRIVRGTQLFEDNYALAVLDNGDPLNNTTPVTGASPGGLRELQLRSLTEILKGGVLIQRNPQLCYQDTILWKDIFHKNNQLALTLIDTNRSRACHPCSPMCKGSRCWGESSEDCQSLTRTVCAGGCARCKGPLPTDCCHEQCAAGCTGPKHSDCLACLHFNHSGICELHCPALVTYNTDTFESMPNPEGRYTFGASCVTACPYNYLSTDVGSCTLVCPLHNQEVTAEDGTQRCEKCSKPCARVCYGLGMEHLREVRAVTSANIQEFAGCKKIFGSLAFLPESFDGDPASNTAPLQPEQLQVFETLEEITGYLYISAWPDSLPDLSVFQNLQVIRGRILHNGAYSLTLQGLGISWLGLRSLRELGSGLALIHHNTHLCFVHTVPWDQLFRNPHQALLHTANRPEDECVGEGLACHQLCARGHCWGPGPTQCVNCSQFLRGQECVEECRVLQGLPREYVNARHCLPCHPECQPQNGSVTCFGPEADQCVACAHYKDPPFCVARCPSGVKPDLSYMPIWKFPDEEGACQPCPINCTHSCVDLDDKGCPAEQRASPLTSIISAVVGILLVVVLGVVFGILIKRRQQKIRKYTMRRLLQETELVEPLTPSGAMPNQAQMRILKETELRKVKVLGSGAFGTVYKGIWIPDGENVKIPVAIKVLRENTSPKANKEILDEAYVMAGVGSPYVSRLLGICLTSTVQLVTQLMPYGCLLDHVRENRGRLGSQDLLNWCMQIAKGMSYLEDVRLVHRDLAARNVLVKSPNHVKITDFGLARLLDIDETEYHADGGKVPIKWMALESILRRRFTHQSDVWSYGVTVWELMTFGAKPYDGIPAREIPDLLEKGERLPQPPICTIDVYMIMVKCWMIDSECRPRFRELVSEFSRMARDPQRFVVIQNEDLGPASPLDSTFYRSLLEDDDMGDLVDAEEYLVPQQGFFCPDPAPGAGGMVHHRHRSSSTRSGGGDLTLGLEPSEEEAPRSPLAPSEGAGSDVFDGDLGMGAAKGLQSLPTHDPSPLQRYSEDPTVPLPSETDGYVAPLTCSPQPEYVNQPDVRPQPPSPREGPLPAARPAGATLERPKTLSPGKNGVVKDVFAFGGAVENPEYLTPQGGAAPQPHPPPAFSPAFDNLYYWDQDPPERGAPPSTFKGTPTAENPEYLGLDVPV
Chain of Receptor tyrosine-protein kinase erbB-4 (Homo sapiens) (Q15303 whole entry): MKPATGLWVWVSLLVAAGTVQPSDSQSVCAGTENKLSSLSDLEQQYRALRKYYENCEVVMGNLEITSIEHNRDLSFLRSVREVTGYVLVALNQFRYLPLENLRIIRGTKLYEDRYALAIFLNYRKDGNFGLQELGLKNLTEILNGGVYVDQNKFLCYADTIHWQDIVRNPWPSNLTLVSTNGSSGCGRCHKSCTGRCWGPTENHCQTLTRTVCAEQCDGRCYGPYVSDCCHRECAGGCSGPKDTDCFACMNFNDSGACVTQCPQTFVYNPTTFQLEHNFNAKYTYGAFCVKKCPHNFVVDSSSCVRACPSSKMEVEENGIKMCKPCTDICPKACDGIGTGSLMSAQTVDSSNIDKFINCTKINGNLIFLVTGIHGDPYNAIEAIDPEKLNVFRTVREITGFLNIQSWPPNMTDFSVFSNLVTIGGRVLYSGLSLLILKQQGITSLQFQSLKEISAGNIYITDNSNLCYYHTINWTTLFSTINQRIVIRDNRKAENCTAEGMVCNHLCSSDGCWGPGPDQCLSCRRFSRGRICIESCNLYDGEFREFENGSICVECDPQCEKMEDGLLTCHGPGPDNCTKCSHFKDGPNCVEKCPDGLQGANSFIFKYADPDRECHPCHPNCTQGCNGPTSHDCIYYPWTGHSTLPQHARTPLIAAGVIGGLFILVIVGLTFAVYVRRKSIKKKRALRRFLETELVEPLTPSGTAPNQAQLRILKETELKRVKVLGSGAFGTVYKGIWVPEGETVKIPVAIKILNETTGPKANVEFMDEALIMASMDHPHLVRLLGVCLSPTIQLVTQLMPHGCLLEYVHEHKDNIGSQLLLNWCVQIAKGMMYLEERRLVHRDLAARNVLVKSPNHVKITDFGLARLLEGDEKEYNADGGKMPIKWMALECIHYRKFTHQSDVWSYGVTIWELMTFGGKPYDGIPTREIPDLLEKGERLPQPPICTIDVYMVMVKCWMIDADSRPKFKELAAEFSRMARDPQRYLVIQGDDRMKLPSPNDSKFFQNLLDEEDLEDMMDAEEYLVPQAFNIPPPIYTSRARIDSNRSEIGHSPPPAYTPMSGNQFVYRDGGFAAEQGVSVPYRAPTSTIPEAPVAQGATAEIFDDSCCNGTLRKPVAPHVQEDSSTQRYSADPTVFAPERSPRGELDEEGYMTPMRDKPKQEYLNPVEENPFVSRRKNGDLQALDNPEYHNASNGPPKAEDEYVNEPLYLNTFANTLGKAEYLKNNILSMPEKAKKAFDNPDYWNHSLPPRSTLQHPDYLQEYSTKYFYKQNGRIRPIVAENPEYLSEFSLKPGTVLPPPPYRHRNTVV
Chain of Cyclin-dependent kinase 16 (Homo sapiens) (Q00536 whole entry): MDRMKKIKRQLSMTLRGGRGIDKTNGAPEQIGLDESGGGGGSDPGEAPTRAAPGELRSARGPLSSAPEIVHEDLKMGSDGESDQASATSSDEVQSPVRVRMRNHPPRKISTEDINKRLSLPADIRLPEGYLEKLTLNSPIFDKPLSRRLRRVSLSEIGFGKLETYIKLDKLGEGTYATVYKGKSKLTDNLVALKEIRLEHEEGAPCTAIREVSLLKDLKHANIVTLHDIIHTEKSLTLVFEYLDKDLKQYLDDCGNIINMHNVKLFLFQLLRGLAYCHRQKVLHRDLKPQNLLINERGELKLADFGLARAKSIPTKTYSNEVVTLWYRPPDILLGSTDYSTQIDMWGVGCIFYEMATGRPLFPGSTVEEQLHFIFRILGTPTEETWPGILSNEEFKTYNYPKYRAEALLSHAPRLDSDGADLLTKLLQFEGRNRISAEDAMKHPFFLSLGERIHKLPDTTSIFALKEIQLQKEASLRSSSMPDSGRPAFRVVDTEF
Chain of Tyrosine-protein kinase Blk (Homo sapiens) (P51451 2-505 limits assumed): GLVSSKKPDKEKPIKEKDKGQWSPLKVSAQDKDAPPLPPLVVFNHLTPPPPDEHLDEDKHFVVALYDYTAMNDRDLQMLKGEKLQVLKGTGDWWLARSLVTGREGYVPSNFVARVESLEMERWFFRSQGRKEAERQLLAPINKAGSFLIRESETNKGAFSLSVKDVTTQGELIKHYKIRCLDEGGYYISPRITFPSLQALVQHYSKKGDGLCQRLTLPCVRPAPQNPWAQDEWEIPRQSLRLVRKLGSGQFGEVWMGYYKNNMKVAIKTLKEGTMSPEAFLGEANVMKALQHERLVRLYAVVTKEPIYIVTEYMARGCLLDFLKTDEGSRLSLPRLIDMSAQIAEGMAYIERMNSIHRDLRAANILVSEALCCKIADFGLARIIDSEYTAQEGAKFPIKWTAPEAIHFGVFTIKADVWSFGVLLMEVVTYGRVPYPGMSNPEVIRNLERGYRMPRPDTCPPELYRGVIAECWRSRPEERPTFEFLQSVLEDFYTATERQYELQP

C=CC(=O)Nc1cc(Nc2ncc(Cl)c(O[C@@H]3CO[C@H]4[C@@H]3OC[C@H]4OC)n2)ccc1N(C)CCN(C)C
inhibition [1]: 9%
inhibition [2]: 40%
Activity (U-937 [3]): 17.86%
inhibition [4]: 106%
Activity (U-937 [5]): Active
Activity (U-937 [6]): 21.98%
inhibition [7]: 84%
inhibition [8]: 90%
Activity (U-937 [9]): 72.06%
Activity (U-937 [10]): 62.58%
Activity (U-937 [11]): Active
IC50 [12]: 365 nM
Activity (U-937 [13]): 15.18%
half-life [14]: 58.8 min
inhibition [15]: 103%
Activity (U-937 [16]): 23.11%
inhibition [17]: 70%
IC50 [18]: 4730 nM
IC50 (BaF3): 178 nM
inhibition [19]: 40%
inhibition [20]: 71%
Activity (U-937 [21]): Active
CL [22]: 155.22%
inhibition [23]: 30%
inhibition [24]: 94%
IC50 (U-937 [25]): 20.2 nM
IC50 [26]: 1.2 nM
